Source: US9309242B2, “Substituted pyrido[2,3-b]pyrazines as FGFR kinase inhibitors” (priority 2011, dated 2016)
Where a name gives a salt, the structure may show the parent alone. Read-outs that look alike come from different tables or passages of the source.

Experiments:
[1] = tested on: Ba/F3-FGFR1-transfected cells; assay: Ba/F3-FGFR1 (plus IL3) cellular proliferation assay, counterscreen with 10 ng/ml murine IL3; type: cell-based; details: for IC50: read-out: BAF3-FGFR1 (PLUS IL3) pIC50 (converted); for BAF3-FGFR1 (PLUS IL3) pIC50: plus IL3 (10 ng/ml murine IL3, counterscreen)
In short: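 Proliferation read-out: resazurin-based Alamar Blue fluorescence (540/590 nm) after 4 h, following 24 h compound treatment of 20000 Ba/F3-FGFR1 cells per well in 10% FBS RPMI at 37° C. IL3 counterscreen used the same protocol plus 10 ng/ml murine IL3.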

FGFR2 (h) = FGFR2 (h) (Homo sapiens, UniProt P21802); assay: FGFR2 (enzymatic assay), TR-FRET; type: biochemical; details: enzymatic assay, read-out: FGFR 2 pIC50 (converted)
Sequence of FGFR2 (h) (P21802 22-821): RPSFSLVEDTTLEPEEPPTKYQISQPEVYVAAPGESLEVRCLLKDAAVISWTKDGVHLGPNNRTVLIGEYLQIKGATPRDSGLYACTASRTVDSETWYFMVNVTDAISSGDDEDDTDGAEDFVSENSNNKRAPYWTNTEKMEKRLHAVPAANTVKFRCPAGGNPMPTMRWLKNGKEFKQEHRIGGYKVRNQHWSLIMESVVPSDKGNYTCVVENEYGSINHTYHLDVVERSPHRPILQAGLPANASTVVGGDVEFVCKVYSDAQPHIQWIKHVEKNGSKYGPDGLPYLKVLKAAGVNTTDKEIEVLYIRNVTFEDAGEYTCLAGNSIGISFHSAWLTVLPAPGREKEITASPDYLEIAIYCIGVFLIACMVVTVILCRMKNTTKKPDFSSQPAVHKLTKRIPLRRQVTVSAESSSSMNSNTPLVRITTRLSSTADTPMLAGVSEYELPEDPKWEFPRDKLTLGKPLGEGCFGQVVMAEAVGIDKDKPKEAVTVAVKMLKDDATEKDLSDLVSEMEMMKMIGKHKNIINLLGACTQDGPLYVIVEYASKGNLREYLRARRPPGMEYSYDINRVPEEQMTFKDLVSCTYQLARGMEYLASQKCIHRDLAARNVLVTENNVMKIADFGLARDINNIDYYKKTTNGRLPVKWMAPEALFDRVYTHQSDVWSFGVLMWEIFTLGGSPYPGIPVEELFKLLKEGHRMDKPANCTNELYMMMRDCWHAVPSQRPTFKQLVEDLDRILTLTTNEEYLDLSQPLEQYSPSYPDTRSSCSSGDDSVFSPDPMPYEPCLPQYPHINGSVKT
In short: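 Phosphorylation of 500 nM Btn-Flt3 by human FGFR2 (150 ng/ml) is measured at 0.4 μM ATP. The buffer is 50 mM HEPES pH 7.5 containing 6 mM MnCl2, 1 mM DTT, 0.1 mM Na3VO4 and 0.01% Triton-X-100, and compound is tested at 1% DMSO final.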

FGFR1 (h) = FGFR1 (h) (Homo sapiens, UniProt P11362); assay: FGFR1 (enzymatic assay), TR-FRET; type: biochemical; details: read-out: FGFR 1 pIC50 (converted)
Sequence of FGFR1 (h) (P11362 22-822): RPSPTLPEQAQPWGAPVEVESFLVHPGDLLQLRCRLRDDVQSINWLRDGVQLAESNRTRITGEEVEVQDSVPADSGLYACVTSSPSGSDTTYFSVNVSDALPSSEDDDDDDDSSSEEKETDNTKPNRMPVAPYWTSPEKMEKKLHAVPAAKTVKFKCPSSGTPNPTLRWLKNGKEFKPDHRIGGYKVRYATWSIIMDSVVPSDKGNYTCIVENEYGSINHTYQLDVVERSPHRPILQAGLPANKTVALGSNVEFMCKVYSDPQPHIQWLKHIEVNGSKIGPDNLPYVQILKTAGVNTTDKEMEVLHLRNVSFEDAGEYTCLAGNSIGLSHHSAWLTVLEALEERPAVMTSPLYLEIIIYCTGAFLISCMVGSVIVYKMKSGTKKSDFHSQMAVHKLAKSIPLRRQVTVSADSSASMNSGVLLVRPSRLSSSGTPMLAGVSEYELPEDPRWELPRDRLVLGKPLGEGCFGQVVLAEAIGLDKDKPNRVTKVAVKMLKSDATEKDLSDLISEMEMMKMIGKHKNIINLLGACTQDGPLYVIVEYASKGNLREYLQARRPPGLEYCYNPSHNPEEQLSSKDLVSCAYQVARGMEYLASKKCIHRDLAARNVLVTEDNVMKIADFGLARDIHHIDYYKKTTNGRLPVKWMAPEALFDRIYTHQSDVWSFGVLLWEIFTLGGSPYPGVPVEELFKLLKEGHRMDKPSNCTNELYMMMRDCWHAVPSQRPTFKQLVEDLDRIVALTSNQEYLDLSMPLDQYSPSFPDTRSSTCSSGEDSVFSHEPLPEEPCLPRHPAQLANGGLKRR

[2] = molecular target: T1, Ba/F3-KDR-transfected cells (Homo sapiens, UniProt P35968); assay: Ba/F3-KDR (minus IL3) cellular proliferation assay, Alamar Blue; type: cell-based
T1 construct: BAF3-KDR (MIN IL3) pIC50; other: minus IL3
In short: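 Cells grown with test compound at 37° C and 5% CO2 for 24 hours were given a resazurin/ferricyanide/ferrocyanide reagent for 4 hours before fluorescence (540/590 nm) was recorded.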

[3] = tested on: Ba/F3-KDR-transfected cells; assay: Ba/F3-KDR (plus IL3) cellular proliferation assay, counterscreen with 10 ng/ml murine IL3; type: cell-based; details: for IC50: read-out: BAF3-KDR (PLUS IL3) pIC50 (converted); for BAF3-KDR (PLUS IL3) pIC50: plus IL3 (10 ng/ml murine IL3, counterscreen)
Description: Ba/F3-KDR (Minus IL3 or Plus IL3) (Cellular Proliferation Assay)
In a 384 well plate, 100 n1 of compound dilution in DMSO was sprayed before adding 50 μl cell culture medium (phenol red free RPMI-1640, 10% FBS, 2 mM L-Glutamine and 50 μg/ml Gentamycin) containing 20000 cells per well of Ba/F3-KDR-transfected cells. Cells were put in an incubator at 37° C. and 5% CO2. After 24 hours, 10 μl of Alamar Blue solution (0.5 mM K3Fe(CN)6, 0.5 mM K4Fe(CN)6, 0.15 mM Resazurin and 100 mM Phosphate Buffer) was added to the wells, incubated for 4 hours at 37° C. and 5% CO2 before RFU's (Relative Fluorescence Units) (ex. 540 nm., em. 590 nm.) were measured in a fluororescence plate reader.
As a counterscreen the same experiment was performed in the presence of 10 ng/ml murine IL3.

KDR (h) = KDR (h) (Homo sapiens, UniProt P35968); assay: KDR (VEGFR2) (enzymatic assay), TR-FRET; type: biochemical; details: read-out: VEGFR 2 (KDR) pIC50 (converted)
In short: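 Low-ATP (3 μM) TR-FRET kinase assay using 500 nM Btn-Flt3 peptide and 150 ng/ml enzyme, run 2 h at room temperature with 6 mM MnCl2 and 0.1 mM Na3VO4. Signal from Eu-anti-P-Tyr/SA-XL-665 is recorded in RFU.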

FGFR3 (h) = FGFR3 (h) (Homo sapiens, UniProt P22607); assay: FGFR3 (enzymatic assay), TR-FRET; type: biochemical; details: read-out: FGFR 3 pIC50 (converted)
Sequence of FGFR3 (h) (P22607 23-806): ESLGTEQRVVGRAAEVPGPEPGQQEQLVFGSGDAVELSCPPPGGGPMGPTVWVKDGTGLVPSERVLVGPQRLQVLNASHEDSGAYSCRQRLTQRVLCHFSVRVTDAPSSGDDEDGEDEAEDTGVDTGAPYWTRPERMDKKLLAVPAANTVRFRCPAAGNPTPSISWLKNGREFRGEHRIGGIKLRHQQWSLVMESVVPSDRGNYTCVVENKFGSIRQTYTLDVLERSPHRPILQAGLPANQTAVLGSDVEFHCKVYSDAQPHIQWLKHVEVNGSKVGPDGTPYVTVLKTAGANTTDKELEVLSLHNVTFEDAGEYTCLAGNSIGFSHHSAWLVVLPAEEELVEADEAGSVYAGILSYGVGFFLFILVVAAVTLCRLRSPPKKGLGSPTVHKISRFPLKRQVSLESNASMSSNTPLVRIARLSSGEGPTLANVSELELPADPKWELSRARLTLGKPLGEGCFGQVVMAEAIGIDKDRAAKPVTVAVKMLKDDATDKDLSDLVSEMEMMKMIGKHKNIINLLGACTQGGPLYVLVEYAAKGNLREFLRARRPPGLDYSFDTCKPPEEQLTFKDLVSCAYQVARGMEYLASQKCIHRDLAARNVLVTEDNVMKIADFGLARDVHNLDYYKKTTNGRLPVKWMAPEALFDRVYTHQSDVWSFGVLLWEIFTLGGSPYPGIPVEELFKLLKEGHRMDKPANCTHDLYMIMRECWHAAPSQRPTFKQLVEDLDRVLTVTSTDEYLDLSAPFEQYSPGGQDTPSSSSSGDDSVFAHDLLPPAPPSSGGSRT
From the text: Time-Resolved Fluorescence Resonance Energy Transfer (TR-FRET) signal (ex340 nm.

[4] = molecular target: Ba/F3-FGFR4-transfected cells (Homo sapiens, UniProt P22455); assay: Ba/F3-FGFR4 cellular proliferation assay, Alamar Blue; type: cell-based
Sequence of Ba/F3-FGFR4-transfected cells (P22455 whole entry, change not shown): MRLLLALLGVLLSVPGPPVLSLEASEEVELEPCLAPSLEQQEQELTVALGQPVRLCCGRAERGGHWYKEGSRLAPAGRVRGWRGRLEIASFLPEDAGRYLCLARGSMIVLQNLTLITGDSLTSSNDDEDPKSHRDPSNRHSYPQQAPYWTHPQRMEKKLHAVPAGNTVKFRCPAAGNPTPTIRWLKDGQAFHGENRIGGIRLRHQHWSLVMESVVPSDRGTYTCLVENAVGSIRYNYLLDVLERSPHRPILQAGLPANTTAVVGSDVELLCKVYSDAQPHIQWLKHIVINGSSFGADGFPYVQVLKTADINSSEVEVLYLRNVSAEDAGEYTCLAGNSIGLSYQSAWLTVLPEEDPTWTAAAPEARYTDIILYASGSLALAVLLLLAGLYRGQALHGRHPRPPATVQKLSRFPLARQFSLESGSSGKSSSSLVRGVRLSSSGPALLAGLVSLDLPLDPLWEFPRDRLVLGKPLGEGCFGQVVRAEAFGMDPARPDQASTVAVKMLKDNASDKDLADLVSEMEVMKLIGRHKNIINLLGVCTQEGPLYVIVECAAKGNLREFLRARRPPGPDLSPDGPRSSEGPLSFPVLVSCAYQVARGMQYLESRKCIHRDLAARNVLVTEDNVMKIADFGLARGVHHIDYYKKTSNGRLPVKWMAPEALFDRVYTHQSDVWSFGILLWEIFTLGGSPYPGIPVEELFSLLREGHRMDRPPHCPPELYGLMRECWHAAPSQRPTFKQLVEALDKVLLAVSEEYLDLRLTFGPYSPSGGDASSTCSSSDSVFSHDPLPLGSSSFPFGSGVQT
In short: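 Here, cells seeded at 20000 per well were treated 24 hours with compound, then given a 4-hour Alamar Blue incubation at 37° C before RFU measurement at ex. 540 nm and em. 590 nm.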

FGFR4 (h) = FGFR4 (h) (Homo sapiens, UniProt P22455); assay: FGFR4 (enzymatic assay), TR-FRET; type: biochemical; details: FGFR 4 pIC50, enzymatic assay
Sequence of FGFR4 (h) (P22455 22-802): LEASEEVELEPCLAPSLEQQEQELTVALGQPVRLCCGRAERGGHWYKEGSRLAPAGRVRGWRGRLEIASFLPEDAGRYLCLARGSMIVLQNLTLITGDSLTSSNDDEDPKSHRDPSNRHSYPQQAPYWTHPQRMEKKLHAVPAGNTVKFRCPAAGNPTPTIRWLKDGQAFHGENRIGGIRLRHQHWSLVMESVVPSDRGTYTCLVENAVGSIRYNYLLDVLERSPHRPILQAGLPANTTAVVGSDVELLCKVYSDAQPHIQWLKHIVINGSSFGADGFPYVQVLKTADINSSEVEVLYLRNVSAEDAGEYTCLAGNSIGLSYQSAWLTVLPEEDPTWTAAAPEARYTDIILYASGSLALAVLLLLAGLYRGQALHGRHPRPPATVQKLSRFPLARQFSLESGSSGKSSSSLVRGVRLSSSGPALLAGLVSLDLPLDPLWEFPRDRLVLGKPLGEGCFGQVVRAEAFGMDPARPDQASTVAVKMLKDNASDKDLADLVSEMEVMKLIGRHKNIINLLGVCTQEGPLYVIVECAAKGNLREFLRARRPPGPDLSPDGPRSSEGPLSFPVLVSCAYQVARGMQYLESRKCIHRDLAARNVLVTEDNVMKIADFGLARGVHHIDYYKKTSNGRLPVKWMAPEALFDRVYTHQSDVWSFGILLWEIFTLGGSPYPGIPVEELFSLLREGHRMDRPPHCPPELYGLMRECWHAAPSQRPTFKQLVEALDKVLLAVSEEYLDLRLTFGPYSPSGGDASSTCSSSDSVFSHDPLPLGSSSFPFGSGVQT

[5] = molecular target: T2, Ba/F3-FGFR1-transfected cells (Homo sapiens, UniProt P11362); assay: Ba/F3-FGFR1 (minus IL3) cellular proliferation assay, Alamar Blue; type: cell-based
T2 construct: BAF3-FGFR1 (MIN IL3) pIC50; other: minus IL3
In short: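 Ba/F3 cells transfected with FGFR1 (20000 cells/well) were plated onto compound in phenol red-free RPMI-1640 with 10% FBS, 2 mM L-glutamine and gentamycin, then kept 24 h at 37 °C, 5% CO2. Alamar Blue (resazurin) was added for 4 h and fluorescence read at ex 540/em 590 nm.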

[6] = molecular target: T3, Ba/F3-FGFR3-transfected cells (Homo sapiens, UniProt P22607); assay: Ba/F3-FGFR3 (minus IL3) cellular proliferation assay, Alamar Blue; type: cell-based
T3 construct: BAF3-FGFR3 (MIN IL3) pIC50; other: minus IL3
T3 sequence (P22607 whole entry, change not shown): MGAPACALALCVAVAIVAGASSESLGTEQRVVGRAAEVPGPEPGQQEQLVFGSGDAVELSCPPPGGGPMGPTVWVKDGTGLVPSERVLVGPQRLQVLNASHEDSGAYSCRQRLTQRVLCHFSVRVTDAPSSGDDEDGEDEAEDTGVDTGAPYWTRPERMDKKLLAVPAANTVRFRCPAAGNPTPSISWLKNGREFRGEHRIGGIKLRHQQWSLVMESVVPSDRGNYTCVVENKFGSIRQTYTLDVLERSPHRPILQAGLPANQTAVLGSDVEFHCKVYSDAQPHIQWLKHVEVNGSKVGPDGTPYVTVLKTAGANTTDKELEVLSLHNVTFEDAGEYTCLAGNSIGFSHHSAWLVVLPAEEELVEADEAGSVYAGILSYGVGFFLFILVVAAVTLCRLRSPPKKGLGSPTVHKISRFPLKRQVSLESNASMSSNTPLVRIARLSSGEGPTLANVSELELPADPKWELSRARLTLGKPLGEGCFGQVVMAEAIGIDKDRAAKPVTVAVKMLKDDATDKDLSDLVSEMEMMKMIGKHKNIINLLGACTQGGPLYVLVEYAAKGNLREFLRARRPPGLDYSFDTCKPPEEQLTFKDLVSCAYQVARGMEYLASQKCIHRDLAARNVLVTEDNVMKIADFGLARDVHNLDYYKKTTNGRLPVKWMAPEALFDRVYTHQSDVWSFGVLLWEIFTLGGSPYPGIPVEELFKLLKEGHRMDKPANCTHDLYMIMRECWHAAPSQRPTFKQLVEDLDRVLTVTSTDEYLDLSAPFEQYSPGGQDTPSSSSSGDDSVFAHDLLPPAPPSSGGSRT
In short: (§1)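 Ba/F3 cells transfected with FGFR3 were seeded at 20000 cells/well in phenol red-free RPMI-1640 with 10% FBS over compound in DMSO and kept 24 hours at 37° C, 5% CO2. Alamar Blue (resazurin) was then added for 4 hours and fluorescence read at ex 540/em 590 nm. The counterscreen repeated this with 10 ng/ml murine IL3.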

[7] = tested on: Ba/F3-FGFR3-transfected cells; assay: Ba/F3-FGFR3 (plus IL3) cellular proliferation assay, counterscreen with 10 ng/ml murine IL3; type: cell-based; details: for IC50: read-out: BAF3-FGFR3 (PLUS IL3) pIC50 (converted); for BAF3-FGFR3 (PLUS IL3) pIC50: plus IL3 (10 ng/ml murine IL3, counterscreen)
In short: as §1

[8] = average values if tested multiple times

Question: Which results are given for `COc1cc(/N=c2\ccc3ncc(-c4cnn(C)c4)nc3n2CCN2CCCC2=O)cc(OC)c1` [Compound 150]?
Answer: IC50 [1]: > 10000 nM; IC50 (FGFR2 (h)): 2.51 nM; IC50 (FGFR1 (h)): 3.8 nM; BAF3-KDR (MIN IL3) pIC50 [2]: 5.34; IC50 [3]: > 10000 nM; IC50 (KDR (h)): 30.9 nM; IC50 (FGFR3 (h)): 3.55 nM; BAF3-FGFR4 pIC50 [4]: 6.18; IC50 (FGFR4 (h)): 14.8 nM; BAF3-FGFR1 (MIN IL3) pIC50 [5]: 6.80; BAF3-FGFR3 (MIN IL3) pIC50 [6]: ~7.06; IC50 [7]: > 10000 nM

Question: `COc1cc(OC)c(F)c(N(CC(O)COC(C)C)c2ccc3ncc(-c4cnn(C)c4)nc3n2)c1` (single isomer, unassigned) [Compound 79] was tested. Which “BAF3-FGFR1 (PLUS IL3) pIC50” value [1] did it give?
Answer: <5

Question: What about the IC50 (FGFR2 (h); [8]) of the same molecule?
Answer: 2.95 nM

Question: And the IC50 (FGFR1 (h); [8])?
Answer: 2.34 nM

Question: What about the “BAF3-KDR (MIN IL3) pIC50” value [2] of the same molecule?
Answer: 5.73

Question: What about the “BAF3-KDR (PLUS IL3) pIC50” value [3] of the same molecule?
Answer: <5

Question: What about the IC50 (KDR (h); [8]) of the same molecule?
Answer: 25.7 nM

Question: What about the IC50 (FGFR3 (h); [8]) of the same molecule?
Answer: 1.66 nM

Question: What about the “BAF3-FGFR4 pIC50” value [4] of the same molecule?
Answer: 7.28

Question: What about the IC50 (FGFR4 (h); [8]) of the same molecule?
Answer: 2 nM

Question: What about the “BAF3-FGFR1 (MIN IL3) pIC50” value [5] of the same molecule?
Answer: 7.58

Question: And the “BAF3-FGFR3 (MIN IL3) pIC50” value [6]?
Answer: 7.63

Question: What about the “BAF3-FGFR3 (PLUS IL3) pIC50” value [7] of the same molecule?
Answer: <5

Question: How did the IC50 [1] turn out when `COc1cc(OC)c(F)c(N(CC(N)=O)c2ccc3ncc(-c4cnn(C)c4)nc3n2)c1` [Compound 239] was run?
Answer: > 10000 nM

Question: And the IC50 (FGFR2 (h))?
Answer: 7.94 nM

Question: And the IC50 (FGFR1 (h))?
Answer: 5.37 nM

Question: What about the “BAF3-KDR (MIN IL3) pIC50” value [2] of the same molecule?
Answer: 5.27

Question: What about the IC50 [3] of the same molecule?
Answer: > 10000 nM

Question: What about the IC50 (KDR (h)) of the same molecule?
Answer: 148 nM

Question: And the IC50 (FGFR3 (h))?
Answer: 5.25 nM

Question: And the “BAF3-FGFR4 pIC50” value [4]?
Answer: 5.87

Question: What about the IC50 (FGFR4 (h)) of the same molecule?
Answer: 35.5 nM

Question: What about the “BAF3-FGFR1 (MIN IL3) pIC50” value [5] of the same molecule?
Answer: 6.44

Question: And the “BAF3-FGFR3 (MIN IL3) pIC50” value [6]?
Answer: 6.51

Question: What about the IC50 [7] of the same molecule?
Answer: > 10000 nM

Question: With `COc1cc(OC)c(F)c(N(CCS(C)(=O)=O)c2ccc3ncc(-c4cnn(C)c4)nc3n2)c1` [Compound 226] as the molecule, how does the IC50 [1] read?
Answer: > 10000 nM

Question: What about the IC50 (FGFR2 (h)) of the same molecule?
Answer: 2.19 nM

Question: What about the IC50 (FGFR1 (h)) of the same molecule?
Answer: 0.912 nM

Question: And the “BAF3-KDR (MIN IL3) pIC50” value [2]?
Answer: 5.92

Question: What about the IC50 [3] of the same molecule?
Answer: > 10000 nM

Question: And the IC50 (KDR (h))?
Answer: 26.3 nM

Question: And the IC50 (FGFR3 (h))?
Answer: 1.12 nM

Question: What about the “BAF3-FGFR4 pIC50” value [4] of the same molecule?
Answer: 6.60

Question: What about the IC50 (FGFR4 (h)) of the same molecule?
Answer: 3.02 nM

Question: And the “BAF3-FGFR1 (MIN IL3) pIC50” value [5]?
Answer: 7.32

Question: And the “BAF3-FGFR3 (MIN IL3) pIC50” value [6]?
Answer: ~7.54

Question: What about the IC50 [7] of the same molecule?
Answer: > 10000 nM

Question: Which “BAF3-FGFR1 (PLUS IL3) pIC50” value [1] does the source give for `COc1cc(OC)c(F)c(N(CC2CCOC2)c2ccc3ncc(-c4cnn(C)c4)nc3n2)c1` (single isomer, unassigned) [Compound 172] here?
Answer: <5

Question: What about the IC50 (FGFR2 (h)) of the same molecule?
Answer: 4.47 nM

Question: And the IC50 (FGFR1 (h))?
Answer: 3.72 nM

Question: And the “BAF3-KDR (MIN IL3) pIC50” value [2]?
Answer: 5.35

Question: What about the “BAF3-KDR (PLUS IL3) pIC50” value [3] of the same molecule?
Answer: <5

Question: What about the IC50 (KDR (h)) of the same molecule?
Answer: 45.7 nM

Question: And the IC50 (FGFR3 (h))?
Answer: 3.02 nM

Question: And the “BAF3-FGFR4 pIC50” value [4]?
Answer: 6.33

Question: What about the IC50 (FGFR4 (h)) of the same molecule?
Answer: ~15.8 nM

Question: What about the “BAF3-FGFR1 (MIN IL3) pIC50” value [5] of the same molecule?
Answer: 6.54

Question: And the “BAF3-FGFR3 (MIN IL3) pIC50” value [6]?
Answer: ~7.06

Question: What about the “BAF3-FGFR3 (PLUS IL3) pIC50” value [7] of the same molecule?
Answer: <5

Question: What does the source list for `COc1cc(OC)c(F)c(N(Cc2ncc[nH]2)c2ccc3ncc(-c4cnn(C)c4)nc3n2)c1` [23-lactate salt]?
Answer: BAF3-FGFR1 (PLUS IL3) pIC50 [1]: <5; IC50 (FGFR2 (h); [8]): 1.38 nM; IC50 (FGFR1 (h); [8]): 0.501 nM; BAF3-KDR (MIN IL3) pIC50 [2]: 6.83; BAF3-KDR (PLUS IL3) pIC50 [3]: <5; IC50 (KDR (h); [8]): 6.61 nM; IC50 (FGFR3 (h); [8]): 0.955 nM; BAF3-FGFR4 pIC50 [4]: 8.13; IC50 (FGFR4 (h); [8]): 1.1 nM; BAF3-FGFR1 (MIN IL3) pIC50 [5]: 8.29; BAF3-FGFR3 (MIN IL3) pIC50 [6]: ~8.14; BAF3-FGFR3 (PLUS IL3) pIC50 [7]: <5
